Assay results as given in ChEMBL document CHEMBL1201862, “PubChem BioAssay data set” (2004).
Calls of active or inactive are those of the source.

What was measured:
[1] = target: T1, Zinc finger protein mex-5 (Caenorhabditis elegans, UniProt Q9XUB2); assay: MEX-5/TCR-2 RNA interaction inhibitors, dose response, biochemical, C. elegans, fluorescence polarization (AID 1960)
T1 sequence (Q9XUB2 whole entry): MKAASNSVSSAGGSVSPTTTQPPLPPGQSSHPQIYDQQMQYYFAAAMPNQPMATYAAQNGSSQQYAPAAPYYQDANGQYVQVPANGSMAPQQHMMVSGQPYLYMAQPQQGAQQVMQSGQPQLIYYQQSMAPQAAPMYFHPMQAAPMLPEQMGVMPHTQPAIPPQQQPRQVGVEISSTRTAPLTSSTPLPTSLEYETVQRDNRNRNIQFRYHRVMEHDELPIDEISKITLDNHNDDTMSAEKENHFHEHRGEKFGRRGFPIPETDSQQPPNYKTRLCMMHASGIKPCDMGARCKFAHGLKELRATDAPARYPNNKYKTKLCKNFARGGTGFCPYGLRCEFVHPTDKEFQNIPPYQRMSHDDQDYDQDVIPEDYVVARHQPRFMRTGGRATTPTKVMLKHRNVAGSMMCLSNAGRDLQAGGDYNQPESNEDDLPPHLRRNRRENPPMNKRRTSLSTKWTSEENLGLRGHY

[2] = target: Tyrosine-protein kinase SYK (Homo sapiens, UniProt P43405); assay type: functional
[3] = target: Casein kinase I isoform gamma-1 (Homo sapiens, UniProt Q9HCP0); assay type: functional;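 further: measured as the CSNK1G1 member of a kinome profiling panel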
Sequence of Casein kinase I isoform gamma-1 (Q9HCP0 whole entry, canonical isoform): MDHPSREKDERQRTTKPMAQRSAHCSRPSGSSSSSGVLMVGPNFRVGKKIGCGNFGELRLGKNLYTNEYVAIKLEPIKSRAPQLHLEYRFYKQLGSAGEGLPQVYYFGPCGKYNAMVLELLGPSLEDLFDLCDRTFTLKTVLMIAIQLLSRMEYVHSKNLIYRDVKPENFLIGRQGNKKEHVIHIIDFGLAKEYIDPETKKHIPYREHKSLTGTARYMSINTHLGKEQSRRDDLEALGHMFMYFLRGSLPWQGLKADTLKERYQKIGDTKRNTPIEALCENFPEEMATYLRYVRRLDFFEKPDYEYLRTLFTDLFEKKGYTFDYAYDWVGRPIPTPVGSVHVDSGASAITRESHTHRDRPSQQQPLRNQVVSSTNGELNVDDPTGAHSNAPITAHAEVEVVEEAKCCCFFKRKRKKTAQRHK

[4] = target: Ephrin type-A receptor 2 (Homo sapiens, UniProt P29317); assay type: functional;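 further: EPHA2 tested as one member of a kinome-wide kinase panel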
Sequence of Ephrin type-A receptor 2 (P29317 whole entry): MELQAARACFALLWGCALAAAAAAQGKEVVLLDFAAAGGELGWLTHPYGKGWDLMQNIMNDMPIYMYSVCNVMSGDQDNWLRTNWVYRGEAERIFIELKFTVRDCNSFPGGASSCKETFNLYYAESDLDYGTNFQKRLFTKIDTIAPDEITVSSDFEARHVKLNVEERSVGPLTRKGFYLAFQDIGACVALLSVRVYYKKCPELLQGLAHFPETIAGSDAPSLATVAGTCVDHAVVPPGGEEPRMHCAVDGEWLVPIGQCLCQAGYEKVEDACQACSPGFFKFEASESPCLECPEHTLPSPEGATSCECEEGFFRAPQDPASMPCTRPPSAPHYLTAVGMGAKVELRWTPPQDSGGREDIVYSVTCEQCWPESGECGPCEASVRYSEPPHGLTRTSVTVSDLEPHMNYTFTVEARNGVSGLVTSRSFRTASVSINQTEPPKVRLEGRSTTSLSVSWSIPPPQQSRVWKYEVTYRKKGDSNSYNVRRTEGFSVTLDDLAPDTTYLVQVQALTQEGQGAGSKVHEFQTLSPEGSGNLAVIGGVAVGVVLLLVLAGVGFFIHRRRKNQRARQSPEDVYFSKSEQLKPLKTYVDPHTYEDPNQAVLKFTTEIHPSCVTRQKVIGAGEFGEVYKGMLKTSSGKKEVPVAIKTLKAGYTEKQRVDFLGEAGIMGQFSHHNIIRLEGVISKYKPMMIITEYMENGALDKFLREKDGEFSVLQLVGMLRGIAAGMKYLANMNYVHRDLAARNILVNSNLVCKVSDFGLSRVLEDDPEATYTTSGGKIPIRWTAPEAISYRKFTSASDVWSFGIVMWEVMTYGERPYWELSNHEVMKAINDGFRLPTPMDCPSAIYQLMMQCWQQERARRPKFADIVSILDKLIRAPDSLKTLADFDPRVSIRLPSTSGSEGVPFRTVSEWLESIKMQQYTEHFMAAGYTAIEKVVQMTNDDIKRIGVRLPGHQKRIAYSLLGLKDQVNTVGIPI

Row | Compound | EC50 [1] | Ki [2] | Ki [3] | Ki [4]
1 | Cc1ccc(/C=C2/C(=O)c3ccc(C(=O)O)cc3C2=O)o1 | 63.6 µM (active) |  |  | 
2 | Clc1cc(NC2CCCCC2)nc(-c2c[nH]c3ncccc23)n1 |  | 0.316 µM (active) | 2.51 µM (active) | > 3.16 µM (inactive)
